According to US20040127396A1, “Use of furin and furin-like protease inhibitors in the treatment of inflammatory or matrix remodelling diseases” (priority 2000, published 2004):

Key:
[1] = tested on: TACE maturation in LoVo NEO cells; experiment: TACE maturation in LoVo NEO cells by Western blotting; type: cell-based, human; conditions: 24 hrs, various concentrations, FIG. 5B
Text: To assess the involvement of furin in TACE endoproteolytic processing, applicant first used a furin-deficient cell line, the LoVo cells. These are human colon carcinoma cells which have a point mutation in both alleles of the fur gene leading to production of a defective enzyme (reference 46). These furin knock-out cells have been extensively used to study the contribution of furin in a cellular context (references 10, 38 and 47). LoVo cells were transfected with wild type furin and two stable transfectants LoVoFUR1 and LoVoFUR2 and control transfectant LoVoNEO have been generated accordingly to their acquired gentamycin resistance. Cell lysates were assessed by Western blotting for the production of TACE proteolytic fragments in immunoblotting using TACE-specific antibodies (Chemicon International, CA). […]
To define if proprotein convertases other than furin are involved in TACE maturation, LoVo NEO cells were incubated for 24 hrs in the presence of Dec-RVKR-CH2Cl, a synthetic peptide that mimics proprotein recognition site. […] LoVo NEO cells were incubated for 24 hrs in the presence of various concentrations of Dec-RVKR-CH2Cl, and cell lysates were assessed for TACE maturation by Western blotting as described above.

[2] = tested on: TNFα release from MonoMac-1 cells; experiment: TNFα release from LPS/PMA-stimulated MonoMac-1 cells (ELISA); type: cell-based, human; conditions: 22 hrs preincubation, then LPS and PMA 3 hours, FIG. 5D
Procedure: To investigate whether the levels of TACE maturation observed in LoVo transfectants impacts TACE-related activities, we first measured cell-surface p75 TNF receptor expression as a marker for TACE cell-surface activity. Briefly, LoVo NEO and LoVo FUR2 cell samples were labeled with anti-TACE or anti-TNF p75 receptor antibodies (Catlag laboratories, Burlingame, Calif.) and cell fluorescence was analyzed on a FACScan (Becton Dickinson). […] Next, we measured the ability of Dec-RVKR-CH2Cl to block TNFα release from MonoMac-1 cells, a human monocytic cell line known to produce high levels of this cytokine (50). For this, MonoMac-1 cells were preincubated for 22 hrs with varying concentrations of Dec-RVKR-CH2Cl, then 500 ng/ml LPS and 100 ng/ml PMA were added. After 3 hours incubation with PMA and LPS, the supernatants were tested for TNF-α production using a TNF-α-specific ELISA assay (R&D Systems, Minneapolis, Minn.).

[3] = tested on: proprotein convertases including furin, PC6B, PC3, PC2, PACE-4 and PC7; conditions: cited from earlier work

## Dec-RVKR-CH2Cl
[1]
  TACE maturation: further inhibition of TACE maturation
[2]
  TNFα released: blocked almost completely
[3]
  inhibition of enzymatic activity of proprotein convertases: efficiently inhibit
